The results in this text go back to patent publication US20250171438A1 (Agios Pharmaceuticals, Inc., priority 2022, published 2025).

Each structure is given as a SMILES string.

By AC50 is commonly meant the midpoint of the concentration-response curve, whichever way the signal moves.

One test has as its target T1, human PAH with the R408W mutation (Homo sapiens, UniProt P00439, R408W).
T1 construct: expressed in transfected cells
T1 sequence (P00439 1-452 R408W): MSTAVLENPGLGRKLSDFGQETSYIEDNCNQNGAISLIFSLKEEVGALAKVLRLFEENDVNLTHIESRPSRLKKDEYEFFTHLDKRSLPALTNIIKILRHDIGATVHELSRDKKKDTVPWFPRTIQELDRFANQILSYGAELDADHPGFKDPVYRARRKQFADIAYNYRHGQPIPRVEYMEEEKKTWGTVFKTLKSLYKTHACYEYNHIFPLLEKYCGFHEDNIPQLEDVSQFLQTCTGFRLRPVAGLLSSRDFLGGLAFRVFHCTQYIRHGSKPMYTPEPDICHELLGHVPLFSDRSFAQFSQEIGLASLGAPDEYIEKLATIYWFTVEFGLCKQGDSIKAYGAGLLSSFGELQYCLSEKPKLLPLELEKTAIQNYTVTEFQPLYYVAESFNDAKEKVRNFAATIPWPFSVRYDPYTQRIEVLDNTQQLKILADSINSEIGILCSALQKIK
Description: Cell Based Phenylalanine Flux Assay. Particulars: A375 cells expressing human R408W PAH; 24 hrs compound incubation; 13C-Tyrosine by LC-MS; average where tested multiple times; read-out: AC50.
Turning to `C[C@H]1CN(C(=O)c2nnc(-c3ccccn3)o2)[C@H](c2nc3ccccc3s2)c2nc[nH]c21` [Example 1589, ((4S,7S)-4-(benzo[d]thiazol-2-yl)-7-methyl-6,7-dihydro-1H-imidazo[4,5-c]pyridin-5(4H)-yl)(5-(pyridin-2-yl)-1,3,4-oxadiazol-2-yl)methanone], the AC50 lay within 500 to 1000 nM.

In the case of `O=C(c1ocnc1C(F)(F)F)N1CCc2[nH]cnc2[C@@H]1c1nc2ccccc2s1` [Example 1326, (R)-(4-(benzo[d]thiazol-2-yl)-6,7-dihydro-1H-imidazo[4,5-c]pyridin-5(4H)-yl)(4-(trifluoromethyl)oxazol-5-yl)methanone], the AC50 lay within 500 to 1000 nM. In the case of `CC(C)(O)c1nc(Br)c(C(=O)N2CCc3[nH]cnc3[C@H]2c2nc3ccccc3s2)o1` [Example 2089], the AC50 was less than 500 nM.

In the case of `O=C(c1ccno1)N1CCc2[nH]cnc2[C@H]1c1nc2ccccc2s1` [Example 1123], the AC50 is 500 to 1000 nM.

For the compound `O=C(c1oc(NC2CC2)nc1C(F)(F)F)N1CCc2[nH]cnc2[C@H]1c1nc2c(F)cccc2s1` [Example 1595], the AC50 was less than 500 nM. For the compound `O=C(N1CCc2[nH]cnc2[C@H]1c1nc2ccccc2s1)C(F)(F)C1(O)CCC1` [Example 1687], the AC50 was less than 500 nM.

Regarding `Cc1nc([C@@H](C)O)oc1C(=O)N1CCc2[nH]cnc2[C@@H]1c1nc2c(F)cccc2s1` [Example 1930, ((R)-4-(4-fluorobenzo[d]thiazol-2-yl)-6,7-dihydro-1H-imidazo[4,5-c]pyridin-5(4H)-yl)(2-((R)-1-hydroxyethyl)-4-methyloxazol-5-yl)methanone], the AC50 was 1000 to 5000 nM. As to `Nc1cc(C(=O)N2CCc3[nH]cnc3[C@@H]2c2nc3ccccc3s2)n(C(F)F)n1` [Example 2052, (R)-(3-amino-1-(difluoromethyl)-1H-pyrazol-5-yl)(4-(benzo[d]thiazol-2-yl)-6,7-dihydro-1H-imidazo[4,5-c]pyridin-5(4H)-yl)methanone], the AC50 lay in the range of 1000 to 5000 nM. Consider `O=C(c1nnc(-c2cnn(C(F)F)c2)o1)N1CCc2[nH]cnc2[C@@H]1c1nc2ccccc2s1` [Example 1778, (R)-(4-(benzo[d]thiazol-2-yl)-6,7-dihydro-1H-imidazo[4,5-c]pyridin-5(4H)-yl)(5-(1-(difluoromethyl)-1H-pyrazol-4-yl)-1,3,4-oxadiazol-2-yl)methanone], for which the AC50 was greater than 5000 nM. Still for that read-out and setting: next, `CC(C)(C)CCC(=O)N1CCc2[nH]cnc2[C@H]1c1nc2ccccc2[nH]1` [Example 907, (S)-1-(4-(1H-benzo[d]imidazol-2-yl)-6,7-dihydro-1H-imidazo[4,5-c]pyridin-5(4H)-yl)-4,4-dimethylpentan-1-one]: less than 500 nM; `O=C(N1CCc2[nH]cnc2[C@@H]1c1nc2ccccc2s1)C(F)(F)C1CC1` [Example 1254, (R)-1-(4-(benzo[d]thiazol-2-yl)-6,7-dihydro-1H-imidazo[4,5-c]pyridin-5(4H)-yl)-2-cyclopropyl-2,2-difluoroethanone]: greater than 5000 nM; `Cc1nc(C(C)(C)O)oc1C(=O)N1CCc2[nH]cnc2[C@@H]1c1nc2ccccc2s1` [Example 1470, (R)-(4-(benzo[d]thiazol-2-yl)-6,7-dihydro-1H-imidazo[4,5-c]pyridin-5(4H)-yl)(2-(2-hydroxypropan-2-yl)-4-methyloxazol-5-yl)methanone]: greater than 5000 nM. The same measure, in the same setting: next, `O=C(c1ccon1)N1CCc2[nH]cnc2[C@@H]1c1nc2ccc(Cl)cc2[nH]1` [Example 970, (R)-(4-(6-chloro-1H-benzo[d]imidazol-2-yl)-6,7-dihydro-1H-imidazo[4,5-c]pyridin-5(4H)-yl)(isoxazol-3-yl)methanone]: 1000 to 5000 nM; `Cn1ncc(-c2ncc(C(=O)N3CCc4[nH]cnc4[C@H]3c3nc4ccccc4s3)s2)c1C(F)(F)F` [Example 1407]: less than 500 nM; `O=C(c1cn(CC(F)(F)F)nc1C(F)F)N1CCc2[nH]cnc2[C@@H]1c1nc2c(F)cccc2s1` [Example 1988, (R)-(3-(difluoromethyl)-1-(2,2,2-trifluoroethyl)-1H-pyrazol-4-yl)(4-(4-fluorobenzo[d]thiazol-2-yl)-6,7-dihydro-1H-imidazo[4,5-c]pyridin-5(4H)-yl)methanone]: 1000 to 5000 nM. Still for that read-out and setting: to `Cn1ncc(C(=O)N2CCc3[nH]cnc3[C@H]2c2nc3c(F)cccc3s2)c1C(F)F` [Example 1743, (S)-(5-(difluoromethyl)-1-methyl-1H-pyrazol-4-yl)(4-(4-fluorobenzo[d]thiazol-2-yl)-6,7-dihydro-1H-imidazo[4,5-c]pyridin-5(4H)-yl)methanone] belongs 500 to 1000 nM; to `O=C(c1cn[nH]c1Cl)N1CCc2[nH]cnc2[C@H]1c1nc2ccccc2s1` [Example 2036], less than 500 nM. For the compound `O=C(N1CCC1)N1CCc2[nH]cnc2[C@@H]1c1nc2ccccc2s1` [Example 1692, (R)-azetidin-1-yl(4-(benzo[d]thiazol-2-yl)-6,7-dihydro-1H-imidazo[4,5-c]pyridin-5(4H)-yl)methanone], the AC50 is 1000 to 5000 nM. Regarding `O=C(c1cnn2ccccc12)N1CCc2[nH]cnc2[C@@H]1c1nc2cccc(F)c2[nH]1` [Example 991, (R)-(4-(7-fluoro-1H-benzo[d]imidazol-2-yl)-6,7-dihydro-1H-imidazo[4,5-c]pyridin-5(4H)-yl)(pyrazolo[1,5-a]pyridin-3-yl)methanone], the AC50 is greater than 5000 nM.

Take `CC(C)(C)c1ncc(C(=O)N2CCc3[nH]cnc3[C@H]2c2nc3ccccc3s2)s1` [Example 1421]: the AC50 was less than 500 nM. With `CC(C)(O)c1nc(C(F)(F)F)c(C(=O)N2CCc3[nH]cnc3[C@@H]2c2nc3ccccc3s2)o1` [Example 1554, (R)-(4-(benzo[d]thiazol-2-yl)-6,7-dihydro-1H-imidazo[4,5-c]pyridin-5(4H)-yl)(2-(2-hydroxypropan-2-yl)-4-(trifluoromethyl)oxazol-5-yl)methanone], the AC50 is less than 500 nM. Regarding `CC[C@@H](O)c1nc(C(F)F)c(C(=O)N2CCc3[nH]cnc3[C@H]2c2nc3c(F)cccc3s2)o1` [Example 2067], the concentration at half-maximal activity (AC50) was less than 500 nM.

As for `Cc1nc(C(C)(C)O)oc1C(=O)N1CCc2[nH]cnc2[C@@H]1c1nc2c(F)cccc2s1` [Example 1472, (R)-(4-(4-fluorobenzo[d]thiazol-2-yl)-6,7-dihydro-1H-imidazo[4,5-c]pyridin-5(4H)-yl)(2-(2-hydroxypropan-2-yl)-4-methyloxazol-5-yl)methanone], the AC50 is 1000 to 5000 nM.

As to `O=C(c1conc1C(F)(F)F)N1CCc2[nH]cnc2[C@@H]1c1nc2c(F)cccc2s1` [Example 1636, (R)-(4-(4-fluorobenzo[d]thiazol-2-yl)-6,7-dihydro-1H-imidazo[4,5-c]pyridin-5(4H)-yl)(3-(trifluoromethyl)isoxazol-4-yl)methanone], the AC50 was in the range of 500 to 1000 nM. Take `O=C(c1oc(-c2ccccn2)nc1C1CC1)N1CCc2[nH]cnc2[C@@H]1c1nc2cccc(F)c2s1` [Example 1557, (R)-(4-cyclopropyl-2-(pyridin-2-yl)oxazol-5-yl)(4-(7-fluorobenzo[d]thiazol-2-yl)-6,7-dihydro-1H-imidazo[4,5-c]pyridin-5(4H)-yl)methanone]: the AC50 was 500 to 1000 nM.

For the compound `N#Cc1nc(NC2CC2)oc1C(=O)N1CCc2[nH]cnc2[C@H]1c1nc2ccccc2s1` [Example 1699, (S)-5-(4-(benzo[d]thiazol-2-yl)-4,5,6,7-tetrahydro-1H-imidazo[4,5-c]pyridine-5-carbonyl)-2-(cyclopropylamino)oxazole-4-carbonitrile], the AC50 fell in the range of 1000 to 5000 nM. Same read-out and setting: next, `O=C(c1cnc(C(F)F)s1)N1CCc2[nH]cnc2[C@H]1c1nc2ccccc2s1` [Example 1521]: less than 500 nM.

Staying with this test, now noted: A375 cells expressing human R408W PAH; 24 hrs with compound; 13C-Tyrosine by LC-MS; average where tested multiple times; read-out: AC50.
For `Cc1nnc(C(=O)N2CCc3[nH]cnc3C2c2nc3ccc(F)cc3s2)s1` (stereo not drawn), the half-maximal activity concentration (AC50) lay within 1000 to 5000 nM.

`Cc1cccc2sc(C3c4nc[nH]c4CCN3C(=O)c3cnn(C)c3Cl)nc12` (stereo not drawn): the concentration at half-maximal activity (AC50) was greater than 5000 nM. On to `O=C(CCc1nccs1)N1CCc2nc[nH]c2C1c1nc2cc(Br)ccc2s1` (stereo not drawn), for which the AC50 was greater than 5000 nM.

With `O=C(c1nccs1)N1CCc2[nH]cnc2[C@@H]1c1nc2ccc(Cl)cc2[nH]1` (single isomer, unassigned), the AC50 was greater than 5000 nM. On to `O=C(c1ncco1)N1CCc2[nH]cnc2C1c1nc2ccc(F)cc2s1` (stereo not drawn), for which the AC50 was greater than 5000 nM. The same measure, in the same setting: to `Cn1nc(C2CC2)nc1C(=O)N1CCc2[nH]cnc2C1c1nc2c(F)cccc2s1` (stereo not drawn) belongs greater than 5000 nM. Still for that read-out and setting: next, `N#Cc1ccn2ncc(C(=O)N3CCc4[nH]cnc4[C@H]3c3nc4ccccc4[nH]3)c2c1` [(S)-3-(4-(1H-benzo[d]imidazol-2-yl)-4,5,6,7-tetrahydro-1H-imidazo[4,5-c]pyridine-5-carbonyl)pyrazolo[1,5-a]pyridine-5-carbonitrile]: greater than 5000 nM; `Cc1nc(N2CCN(C)CC2)oc1C(=O)N1CCc2[nH]cnc2C1c1nc2c(F)cccc2s1` (stereo not drawn): greater than 5000 nM; `CC(C)(O)c1cc(C(=O)N2CCc3[nH]cnc3C2c2nc3ccccc3s2)no1` (stereo not drawn): greater than 5000 nM. The same measure, in the same setting: next, `O=C(c1nc2ccccc2[nH]1)N1CCc2[nH]cnc2[C@H]1c1nc2ccccc2[nH]1` [(S)-(4-(1H-benzo[d]imidazol-2-yl)-1,4,6,7-tetrahydro-5H-imidazo[4,5-c]pyridin-5-yl)(1H-benzo[d]imidazol-2-yl)methanone]: 1000 to 5000 nM; `O=C(c1cnn2ccccc12)N1CCc2[nH]cnc2C1c1nc2ccc(Br)cc2s1` (stereo not drawn): greater than 5000 nM; `O=C(C1CC1)N1CCc2[nH]cnc2C1c1nc2c(F)cccc2s1` (stereo not drawn): greater than 5000 nM.
